Assay results: patent US20260216164A1, “INDOLE COMPOUND DECOMPOSING IKZF2, AND USE THEREOF” (KOREA RESEARCH INSTITUTE OF CHEMICAL TECHNOLOGY, priority 2023, published 2026)
Like-named read-outs stand apart in the source and are kept apart here.

How the values were obtained:
Type in all cases: cell-based
Helios (IKZF2) = Helios (IKZF2) (Homo sapiens, UniProt Q96SW2+Q9UKS7); assay: Screening of Helios protein degraders using Nano-Glo HiBiT cell line (HiBiT-IKZF2); details: 6 hours, HiBiT-Helios knock-in Jurkat cells; for remaining activity at 10 µM: compound 10 μM, read-out: HiBiT-IKZF2 Residual amount of Helios (%) 10 μM; for remaining activity at 1 µM: compound 1 μM, read-out: HiBiT-IKZF2 Residual amount of Helios (%) 1 μM
IKZF2 (Helios) = IKZF2 (Helios) (Homo sapiens, UniProt Q96SW2+Q9UKS7); assay: Screening of DC50 (nM) and Dmax (%) using WB-IKZF2 cell line (Western blot); design: endogenous in cells; details: 6 hours; for DC50: read-out: WB-IKZF2 DC 50
Method: Experimental Example 2. Screening of DC50 (nM) and Dmax (%) Using WB-IKZF2 Cell Line
Candidate degraders were serially diluted and treated in cells cultured in complete medium, followed by incubation for 6 hours at 37° C. in a CO2 incubator. After 6 hours, the cells were harvested and lysed in RIPA buffer (150 mM NaCl, 1% Triton X-100, 1% sodium deoxycholate, 0.1% SDS, 50 mM Tris-HCl pH 7.5, and 2 mM EDTA) containing a protease inhibitor cocktail (Roche). The mixture was vortexed every 10 minutes and incubated on ice for 30 minutes, followed by centrifugation at 13,000 rpm for 10 minutes at 4° C. to isolate proteins. The isolated proteins were quantified using the Bradford assay (Bio-Rad, 5000006). Proteins were separated on 8% SDS-polyacrylamide gel, transferred onto nitrocellulose membranes (Amersham, 10600002), and incubated with primary antibodies at 4° C. for 18 hours. The following primary antibodies were used: anti-Helios rabbit monoclonal antibody (Cell Signaling, 42427, 1:3000) and anti-β-actin mouse monoclonal antibody (Santa Cruz, sc-47778, 1:5000). β-actin was used as a loading control. The next day, the membranes were washed with 1×TBST for 30 minutes and incubated with HRP-conjugated secondary antibodies corresponding to the primary antibodies at room temperature for 1 hour. The following secondary antibodies were used: anti-mouse IgG HRP-linked antibody (Sigma, A9044, 1:5000) and anti-rabbit IgG HRP-linked antibody (Cell Signaling, 7074, 1:5000). After washing with 1×TBST for 30 minutes, protein expression was visualized using the Pierce ECL Western blotting substrate (Thermo Fisher, 32106), and images were captured using a chemiluminescence image analysis system (GE Healthcare, AI680). The obtained images were quantified using the ImageJ software.

Helios protein = target: T1, Helios protein (Homo sapiens, UniProt Q96SW2+Q9UKS7); assay: Measurement of Helios protein degradation using Western blot analysis in Jurkat cells (FIG. 1); details: 6 hours
T1 construct: endogenous in cells; host or cells: Jurkat cells
Method: To confirm the degradation of Helios protein by the degrader, Western blot analysis was performed. Jurkat cells (5×10^6) in complete medium were treated with serial dilutions of the compound at 37° C. in a CO2 incubator for 6 hours.
After harvesting the cells, they were lysed in RIPA buffer (LPS solution, CRB002) containing a protease inhibitor cocktail (Roche). The lysates were incubated on ice for 30 minutes with vortexing every 10 minutes, followed by centrifugation at 13,000 rpm for 10 minutes at 4° C. to isolate the cell lysates. The lysates were quantified using the Bradford assay (Bio-Rad, 5000006).
30 μg of the lysates were separated by 8% SDS-polyacrylamide gel electrophoresis (SDS-PAGE), and the proteins were transferred to a nitrocellulose (NC) membrane (Amersham, 10600002), followed by incubation with primary antibodies at 4° C. for 18 hours. […]
After washing with 1×TBST for 30 minutes, protein expression was visualized using Pierce ECL Western blotting substrate (Thermo Fisher, 32106), and the images were acquired using a chemiluminescence imaging system (GE Healthcare, AI680). The resulting images were quantified using ImageJ software. The results of Helios protein degradation measured with compound 39 of the present disclosure and comparative compound DKY709 are shown in FIG. 1.

[1] = target: IKZF2 over IKZF1, IKZF3, and IKZF4 (Homo sapiens, UniProt Q96SW2+Q9UKS7); assay: Selective degradation of IKZF2 over IKZF1, IKZF3 and IKZF4

Chain of Helios (IKZF2) (Q9UKS7 whole entry): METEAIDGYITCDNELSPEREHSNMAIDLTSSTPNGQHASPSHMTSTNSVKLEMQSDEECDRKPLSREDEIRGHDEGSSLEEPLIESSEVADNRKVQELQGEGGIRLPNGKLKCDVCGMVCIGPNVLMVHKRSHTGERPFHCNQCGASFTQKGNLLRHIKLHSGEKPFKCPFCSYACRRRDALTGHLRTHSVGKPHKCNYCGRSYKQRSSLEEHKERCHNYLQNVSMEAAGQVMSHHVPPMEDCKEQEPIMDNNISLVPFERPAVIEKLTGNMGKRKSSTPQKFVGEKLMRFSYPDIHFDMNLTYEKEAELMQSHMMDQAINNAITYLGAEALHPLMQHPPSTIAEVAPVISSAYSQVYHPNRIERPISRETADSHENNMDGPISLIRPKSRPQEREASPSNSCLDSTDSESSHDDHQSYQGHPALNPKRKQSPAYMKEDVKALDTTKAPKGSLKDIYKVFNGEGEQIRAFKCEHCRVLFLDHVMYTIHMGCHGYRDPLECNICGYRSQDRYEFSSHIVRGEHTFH
Chain of Helios (IKZF2) (Q96SW2 whole entry): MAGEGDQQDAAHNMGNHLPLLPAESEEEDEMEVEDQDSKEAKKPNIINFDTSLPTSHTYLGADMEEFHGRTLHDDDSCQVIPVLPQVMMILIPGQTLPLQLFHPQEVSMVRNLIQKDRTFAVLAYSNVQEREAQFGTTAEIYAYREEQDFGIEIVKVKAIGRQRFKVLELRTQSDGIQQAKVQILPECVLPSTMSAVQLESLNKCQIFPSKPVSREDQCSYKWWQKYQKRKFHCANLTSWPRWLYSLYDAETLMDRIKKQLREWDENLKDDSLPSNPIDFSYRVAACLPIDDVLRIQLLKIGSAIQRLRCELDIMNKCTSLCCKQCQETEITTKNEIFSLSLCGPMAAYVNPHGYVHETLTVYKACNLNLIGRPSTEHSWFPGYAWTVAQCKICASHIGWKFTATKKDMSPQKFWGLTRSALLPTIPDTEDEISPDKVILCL
Chain of Helios (IKZF2) (Q16531 whole entry partner): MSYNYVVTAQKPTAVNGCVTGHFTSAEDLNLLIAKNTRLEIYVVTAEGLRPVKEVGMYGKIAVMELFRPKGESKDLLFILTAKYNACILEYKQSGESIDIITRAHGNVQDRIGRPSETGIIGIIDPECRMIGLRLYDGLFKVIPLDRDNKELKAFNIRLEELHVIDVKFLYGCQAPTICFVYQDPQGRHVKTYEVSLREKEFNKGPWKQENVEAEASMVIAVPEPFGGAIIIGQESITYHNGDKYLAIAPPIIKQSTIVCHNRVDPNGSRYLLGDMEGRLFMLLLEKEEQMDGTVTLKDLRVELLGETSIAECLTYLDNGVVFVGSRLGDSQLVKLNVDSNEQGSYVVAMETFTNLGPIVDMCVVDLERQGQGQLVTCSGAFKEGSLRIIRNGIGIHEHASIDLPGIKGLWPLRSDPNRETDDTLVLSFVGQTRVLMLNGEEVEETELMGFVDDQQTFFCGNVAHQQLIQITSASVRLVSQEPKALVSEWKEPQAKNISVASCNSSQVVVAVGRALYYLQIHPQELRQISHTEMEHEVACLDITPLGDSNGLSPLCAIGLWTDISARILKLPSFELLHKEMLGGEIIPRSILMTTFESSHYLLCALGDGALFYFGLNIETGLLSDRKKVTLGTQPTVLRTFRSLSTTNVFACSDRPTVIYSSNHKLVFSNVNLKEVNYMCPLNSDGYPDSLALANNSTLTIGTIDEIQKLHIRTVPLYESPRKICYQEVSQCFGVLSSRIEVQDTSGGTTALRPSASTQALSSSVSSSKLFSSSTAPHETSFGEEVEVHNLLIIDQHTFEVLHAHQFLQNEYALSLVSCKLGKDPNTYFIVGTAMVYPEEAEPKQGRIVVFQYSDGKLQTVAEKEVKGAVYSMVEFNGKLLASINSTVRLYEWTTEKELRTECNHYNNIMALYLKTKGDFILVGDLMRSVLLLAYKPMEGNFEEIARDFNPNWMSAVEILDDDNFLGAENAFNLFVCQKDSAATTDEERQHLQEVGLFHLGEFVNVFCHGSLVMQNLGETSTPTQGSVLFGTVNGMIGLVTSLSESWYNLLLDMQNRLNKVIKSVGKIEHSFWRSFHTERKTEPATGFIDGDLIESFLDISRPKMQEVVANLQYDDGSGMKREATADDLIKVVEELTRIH
Chain of IKZF2 (Helios) (Q9UKS7 whole entry): as the sequence (Q9UKS7 whole entry) above
Chain of IKZF2 (Helios) (Q96SW2 whole entry): as the sequence (Q96SW2 whole entry) above
Chain of IKZF2 (Helios) (Q16531 whole entry partner): as the sequence (Q16531 whole entry partner) above
T1 sequence (Q9UKS7 whole entry): as the sequence (Q9UKS7 whole entry) above
T1 sequence (Q96SW2 whole entry): as the sequence (Q96SW2 whole entry) above
T1 sequence (Q16531 whole entry partner): as the sequence (Q16531 whole entry partner) above

Row | SMILES | remaining activity at 10 µM (Helios (IKZF2)) [%] | DC50 (IKZF2 (Helios); class symbols) [nM] | remaining activity at 1 µM (Helios (IKZF2)) [%] | Helios protein degradation activity compared to comparative compound 1 (DKY709) (Helios protein) | Dmax (IKZF2 (Helios)) [%] | DC50 (IKZF2 (Helios); numeric value) [nM] | selective degradation activity for IKZF2 over IKZF1, IKZF3, and IKZF4 [1]
1 | CN(C)Cc1c(C(=O)N2CCC(c3ccc4c(c3)CN(C3CCC(=O)NC3=O)C4=O)CC2)[nH]c2cc(Cl)ccc12 (stereo not shown) [Compound 87, 3-(5-(1-(6-chloro-3-((dimethylamino)methyl)-1H-indole-2-carbonyl)piperidin-4-yl)-1-oxoinsoindolin-2-yl)piperidine-2,6-dione] | 8.7 | 100 to 1000 |  |  |  |  | 
2 | Cc1c(C(=O)N2CCC(c3ccc4c(c3)CN(C3CCC(=O)NC3=O)C4=O)CC2)[nH]c2cc(Cl)ccc12 (stereo not shown) [Compound 39, 3-(5-(1-(6-chloro-3-methyl-1H-indole-2-carbonyl)piperidin-4-yl)-1-oxoinsoindolin-2-yl)piperidine-2,6-dione] | 5.5 |  | 6.6 | more than 1,000 fold | 100 | 0.19 | 
3 | Cc1c(C(=O)N2CCC(c3ccc4c(c3F)CN(C3CCC(=O)NC3=O)C4=O)CC2)[nH]c2cc(Cl)ccc12 (stereo not shown) [Compound 91, 3-(5-(1-(6-chloro-3-methyl-1H-indole-2-carbonyl)piperidin-4-yl)-4-fluoro-1-oxoinsoindolin-2-yl)piperidine-2,6-dione] | 6.4 | < 10 |  |  | 100 |  | 
4 | Cc1c(C(=O)N2CCC(c3ccc4c(c3)CN(C3CCC(=O)NC3=O)C4=O)CC2)[nH]c2cc(Cl)c(O)cc12 (stereo not shown) [Compound 101, 3-(5-(1-(6-chloro-5-hydroxy-3-methyl-1H-indole-2-carbonyl)piperidin-4-yl)-1-oxoinsoindolin-2-yl)piperidine-2,6-dione] | 20.7 | 10 to 100 | 15.7 |  | 100 |  | 
5 | O=C1CCC(N2Cc3cc(C4CCN(C(=O)c5[nH]c6cc(Cl)ccc6c5CN5CCOCC5)CC4)ccc3C2=O)C(=O)N1 (stereo not shown) [Compound 82, 3-(5-(1-(6-chloro-3-(morpholinomethyl)-1H-indole-2-carbonyl)piperidin-4-yl)-1-oxoinsoindolin-2-yl)piperidine-2,6-dione] | 7.4 | 10 to 100 |  |  |  |  | selective degradation activity for IKZF2 over IKZF1, IKZF3, and IKZF4
6 | Cc1c(C(=O)N2CCC(c3ccc4c(c3)CN(C3CCC(=O)NC3=O)C4=O)CC2)[nH]c2cc(O)ccc12 (stereo not shown) [Compound 47, 3-(5-(1-(6-hydroxy-3-methyl-1H-indole-2-carbonyl)piperidin-4-yl)-1-oxoinsoindolin-2-yl)piperidine-2,6-dione] | 24 | 100 to 1000 | 27.9 |  |  |  | 

Second part, led by results:

Row | remaining activity at 10 µM (Helios (IKZF2)) [%] | DC50 (IKZF2 (Helios); class symbols) [nM] | remaining activity at 1 µM (Helios (IKZF2)) [%] | Helios protein degradation activity compared to comparative compound 1 (DKY709) (Helios protein) | Dmax (IKZF2 (Helios)) [%] | DC50 (IKZF2 (Helios); numeric value) [nM] | SMILES | selective degradation activity for IKZF2 over IKZF1, IKZF3, and IKZF4 [1]
7 | 8.1 | 10 to 100 |  |  |  |  | Cc1c(C(=O)N2CCC(O)(c3ccc4c(c3)CN(C3CCC(=O)NC3=O)C4=O)CC2)[nH]c2cc(Cl)ccc12 (stereo not shown) [Compound 64, 3-(5-(1-(6-chloro-3-methyl-1H-indole-2-carbonyl)-4-hydroxypiperidin-4-yl)-1-oxoinsoindolin-2-yl)piperidine-2,6-dione] | 
8 | 5.1 | < 10 |  |  | 100 |  | Cc1c(C(=O)N2CCC(c3ccc4c(c3)CN(C3CCC(=O)NC3=O)C4=O)CC2)[nH]c2cc([N+](=O)[O-])ccc12 (stereo not shown) [Compound 55, 3-(5-(1-(3-methyl-6-nitro-1H-indole-2-carbonyl)piperidin-4-yl)-1-oxoinsoindolin-2-yl)piperidine-2,6-dione] | 
9 | 7.5 | < 10 | 8.3 |  | 100 |  | COc1cc2c(C)c(C(=O)N3CCC(c4ccc5c(c4F)CN(C4CCC(=O)NC4=O)C5=O)CC3)[nH]c2cc1Cl (stereo not shown) [Compound 108, 3-(5-(1-(6-chloro-5-methoxy-3-methyl-1H-indole-2-carbonyl)piperidin-4-yl)-4-fluoro-1-oxoinsoindolin-2-yl)piperidine-2,6-dione] | 
10 |  | < 10 | 14.1 |  | 96 |  | Cc1c(C(=O)N2CCC(c3ccc4c(c3F)CN(C3CCC(=O)NC3=O)C4=O)CC2)[nH]c2cc(Cl)c(F)cc12 (stereo not shown) [Compound 113, 3-(5-(1-(6-chloro-5-fluoro-3-methyl-1H-indole-2-carbonyl)piperidin-4-yl)-4-fluoro-1-oxoinsoindolin-2-yl)piperidine-2,6-dione] | 
11 | 9.7 | 100 to 1000 |  |  |  |  | Cc1c(C(=O)N2CCC(c3ccc4c(c3)CN(C3CCC(=O)NC3=O)C4=O)CC2)[nH]c2cc([N+](=O)[O-])c(Cl)cc12 (stereo not shown) [Compound 84, 3-(5-(1-(5-chloro-3-methyl-6-nitro-1H-indole-2-carbonyl)piperidin-4-yl)-1-oxoinsoindolin-2-yl)piperidine-2,6-dione] | 
